Here are results for 18 compounds from publication PMC9386376, “Discovery of spirooxindole-derived small-molecule compounds as novel HDAC/MDM2 dual inhibitors and investigation of their anticancer activity” (Frontiers in Oncology, 2022).

For one data set, the target named is T1, GST-tagged MDM2 (Homo sapiens, UniProt Q00987).
T1 construct: purchased Cisbio Co. Ltd
Description: HTRF enzyme inhibition assay, MDM2. The data set is classed as biochemical. Particulars: compound at 1 μM. As for the experimental part: The enzymatic assay of test compounds is using the HTRF-based method provided by Cisbio Co. Ltd. In brief, the target compounds to be tested were prepared into samples with a concentration of 1 μM, which was added to GST-tagged MDM2 and HDAC1 proteins, respectively, then biotinylated substrate p53 peptide and HTRF detection reagents were added. The data obtained were processed by the ratio method, and the inhibition rates of MDM2 and HDAC1 were calculated. The detailed experimental procedures are according to the manufacturer’s protocols.

The target in another data set is HDAC1 (Homo sapiens, UniProt Q13547). Description: HTRF enzyme inhibition assay, HDAC1. Conditions: read-out: % enzyme inhibition HDAC. In general terms: TR-FRET usually uses a lanthanide donor and a delayed reading to cut background.
Chain of HDAC1 (Q13547 whole entry): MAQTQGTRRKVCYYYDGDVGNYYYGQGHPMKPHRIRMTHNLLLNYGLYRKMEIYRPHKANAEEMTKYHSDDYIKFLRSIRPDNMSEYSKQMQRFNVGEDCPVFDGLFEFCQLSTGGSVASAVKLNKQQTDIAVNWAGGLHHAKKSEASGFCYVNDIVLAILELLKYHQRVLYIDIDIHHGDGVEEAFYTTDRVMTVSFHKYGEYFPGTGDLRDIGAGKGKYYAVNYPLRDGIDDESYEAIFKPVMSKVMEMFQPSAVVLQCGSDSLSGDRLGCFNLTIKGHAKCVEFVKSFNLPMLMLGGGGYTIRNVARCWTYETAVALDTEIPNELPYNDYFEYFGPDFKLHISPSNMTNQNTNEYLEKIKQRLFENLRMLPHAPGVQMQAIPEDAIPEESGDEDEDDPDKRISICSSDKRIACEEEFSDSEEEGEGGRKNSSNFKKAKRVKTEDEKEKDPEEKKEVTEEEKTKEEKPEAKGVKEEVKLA

For orientation: inhibition means how much of the control response was suppressed. A word on the melting point: it is the temperature of the solid-liquid transition.

T1 sequence (Q00987 whole entry): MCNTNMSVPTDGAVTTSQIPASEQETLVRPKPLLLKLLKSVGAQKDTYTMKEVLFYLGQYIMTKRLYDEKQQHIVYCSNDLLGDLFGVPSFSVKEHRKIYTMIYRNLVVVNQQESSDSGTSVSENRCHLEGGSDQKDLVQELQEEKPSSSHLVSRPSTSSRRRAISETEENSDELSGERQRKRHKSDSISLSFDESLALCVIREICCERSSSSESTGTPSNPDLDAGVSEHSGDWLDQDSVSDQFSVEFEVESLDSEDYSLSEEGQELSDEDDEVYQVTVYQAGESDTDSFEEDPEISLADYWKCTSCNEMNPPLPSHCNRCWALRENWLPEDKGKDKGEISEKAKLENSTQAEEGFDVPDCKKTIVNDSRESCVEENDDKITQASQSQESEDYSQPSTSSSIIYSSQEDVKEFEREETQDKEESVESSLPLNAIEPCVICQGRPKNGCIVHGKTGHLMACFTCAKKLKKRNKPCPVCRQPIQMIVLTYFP

The compound `O=C(CCCCCCC(=O)Nc1ccc([C@@H]2[C@H]3CSCN3[C@]3(C(=O)Nc4ccc(Br)cc43)[C@H]2C(=O)c2ccccc2)cc1)NO` [7e, N^1-(4-((3R,6'S,7'R,7a'S)-6'-benzoyl-5-bromo-2-oxo-1',6',7',7a'-tetrahydro-3'H-spiro[indoline-3,5'-pyrrolo[1,2-c]thiazol]-7'-yl)phenyl)-N^8-hydroxyoctanediamide] registered a melting point of 146.8 to 148 °C. At GST-tagged MDM2, this compound returned an inhibition at 1 µM of 48%. For the same compound, the inhibition at 1 µM on HDAC1 is 72%.

`O=C(CCCCCCC(=O)Nc1ccc([C@@H]2[C@H]3CSCN3[C@]3(C(=O)Nc4ccccc43)[C@H]2C(=O)c2cccc(Br)c2)cc1)NO` [7n, N^1-(4-((3R,6'S,7'R,7a'S)-6'-(3-bromobenzoyl)-2-oxo-1',6',7',7a'-tetrahydro-3'H-spiro[indoline-3,5'-pyrrolo[1,2-c]thiazol]-7'-yl)phenyl)-N^8-hydroxyoctanediamide] displayed a melting point of 120.2 to 121.5 °C. On GST-tagged MDM2, this compound yielded an inhibition at 1 µM of 43%. For the same compound, on HDAC1, the inhibition at 1 µM was found to be 69%.

In turn, `CN1C[C@@H](c2ccc(NC(=O)CCCCCCC(=O)NO)cc2)[C@H](C(=O)c2ccccc2)[C@@]12C(=O)Nc1cc(Cl)ccc12` [13a, N^1-(4-((3R,3'S,4'R)-3'-benzoyl-6-chloro-1'-methyl-2-oxospiro[indoline-3,2'-pyrrolidin]-4'-yl)phenyl)-N^8-hydroxyoctanediamide] registered a melting point of 126.7 to 127.9 °C. The compound also returned an inhibition at 1 µM against GST-tagged MDM2 of 52%. In addition, the inhibition at 1 µM at HDAC1 amounted to 65%.

`Cc1ccc2c(c1)[C@@]1(C(=O)N2)[C@@H](C(=O)c2ccccc2)[C@H](c2ccc(NC(=O)CCCCCCC(=O)NO)cc2)[C@H]2CSCN21` [7b, N^1-(4-((3R,6'S,7'R,7a'S)-6'-benzoyl-5-methyl-2-oxo-1',6',7',7a'-tetrahydro-3'H-spiro[indoline-3,5'-pyrrolo[1,2-c]thiazol]-7'-yl)phenyl)-N^8-hydroxyoctanediamide] yielded a melting point of 144.2 to 145.6 °C. This compound also displayed an inhibition at 1 µM at GST-tagged MDM2 of 45%. The inhibition at 1 µM on HDAC1 was 71%.

`Nc1ccccc1NC(=O)CCCCC(=O)Nc1ccc([C@@H]2[C@H]3CSCN3[C@]3(C(=O)Nc4cc(Cl)ccc43)[C@H]2C(=O)c2ccccc2)cc1` [9c, N^1-(2-aminophenyl)-N^6-(4-((3R,6'S,7'R,7a'S)-6'-benzoyl-6-chloro-2-oxo-1',6',7',7a'-tetrahydro-3'H-spiro[indoline-3,5'-pyrrolo[1,2-c]thiazol]-7'-yl)phenyl)adipamide] came in with a melting point of 148.9 to 150 °C. Also, 1 µM produced 57% inhibition against GST-tagged MDM2. On HDAC1, the inhibition at 1 µM is 40%.

`O=C(CCCCCCC(=O)Nc1ccc([C@@H]2[C@H]3CSCN3[C@]3(C(=O)Nc4cc(Cl)ccc43)[C@H]2C(=O)c2ccccc2)cc1)NO` [compound 7f, N^1-(4-((3R,6'S,7'R,7a'S)-6'-benzoyl-6-chloro-2-oxo-1',6',7',7a'-tetrahydro-3'H-spiro[indoline-3,5'-pyrrolo[1,2-c]thiazol]-7'-yl)phenyl)-N^8-hydroxyoctanediamide] registered a melting point of 150.2 to 151.2 °C. Also, the inhibition at 1 µM at GST-tagged MDM2 was found to be 65%. Moreover, the inhibition at 1 µM at HDAC1 was found to be 64%.

As for `O=C(CCCCCCC(=O)Nc1ccc([C@@H]2[C@H]3CSCN3[C@]3(C(=O)Nc4ccc(Cl)cc43)[C@H]2C(=O)c2ccccc2)cc1)NO` [7d, N^1-(4-((3R,6'S,7'R,7a'S)-6'-benzoyl-5-chloro-2-oxo-1',6',7',7a'-tetrahydro-3'H-spiro[indoline-3,5'-pyrrolo[1,2-c]thiazol]-7'-yl)phenyl)-N^8-hydroxyoctanediamide], the melting point is 154.6 to 156.2 °C. On GST-tagged MDM2, this compound showed an inhibition at 1 µM of 49%. Also, the inhibition at 1 µM on HDAC1 turned out to be 67%.

The compound `O=C(CCCCC(=O)Nc1ccc([C@@H]2[C@H]3CSCN3[C@]3(C(=O)Nc4ccccc43)[C@H]2C(=O)c2ccccc2)cc1)NO` [7p, N^1-(4-((3R,6'S,7'R,7a'S)-6'-benzoyl-2-oxo-1',6',7',7a'-tetrahydro-3'H-spiro[indoline-3,5'-pyrrolo[1,2-c]thiazol]-7'-yl)phenyl)-N^6-hydroxyadipamide] yielded a melting point of 140.3 to 141.7 °C. The same compound showed an inhibition at 1 µM at GST-tagged MDM2 of 44%. In addition, the inhibition at 1 µM at HDAC1 was determined as 60%.

As to `O=C(CCC(=O)Nc1ccc([C@@H]2[C@H]3CSCN3[C@]3(C(=O)Nc4ccccc43)[C@H]2C(=O)c2ccccc2)cc1)NO` [7o, N^1-(4-((3R,6'S,7'R,7a'S)-6'-benzoyl-2-oxo-1',6',7',7a'-tetrahydro-3'H-spiro[indoline-3,5'-pyrrolo[1,2-c]thiazol]-7'-yl)phenyl)-N^4-hydroxysuccinamide], the melting point was 145.1 to 146.3 °C. Besides, testing at 1 µM on GST-tagged MDM2 gave an inhibition of 43%. Moreover, the inhibition at 1 µM on HDAC1 came to 54%.

`O=C(CCCCCCC(=O)Nc1ccc([C@@H]2[C@H]3CCCN3[C@]3(C(=O)Nc4cc(Cl)ccc43)[C@H]2C(=O)c2ccccc2)cc1)NO` [7t, N^1-(4-((1'R,2'S,3R,7a'R)-2'-benzoyl-6-chloro-2-oxo-1',2',5',6',7',7a'-hexahydrospiro[indoline-3,3'-pyrrolizin]-1'-yl)phenyl)-N^8-hydroxyoctanediamide]: the melting point was 143.4 to 144.5 °C. Besides, the inhibition at 1 µM at GST-tagged MDM2 was determined as 61%. Further, the inhibition at 1 µM on HDAC1 amounted to 61%.

Take `O=C(CCCCCCCCC(=O)Nc1ccc([C@@H]2[C@H]3CSCN3[C@]3(C(=O)Nc4cc(Cl)ccc43)[C@H]2C(=O)c2ccccc2)cc1)NO` [7s, N^1-(4-((3R,6'S,7'R,7a'S)-6'-benzoyl-6-chloro-2-oxo-1',6',7',7a'-tetrahydro-3'H-spiro[indoline-3,5'-pyrrolo[1,2-c]thiazol]-7'-yl)phenyl)-N^10-hydroxydecanediamide]: the melting point lay within 137.7 to 139 °C. Further, the inhibition at 1 µM at GST-tagged MDM2 worked out at 59%. For the same compound, on HDAC1, the inhibition at 1 µM stood at 68%.

For the compound `O=C(CCCCC(=O)Nc1ccc([C@@H]2[C@H]3CSCN3[C@]3(C(=O)Nc4cc(Cl)ccc43)[C@H]2C(=O)c2ccccc2)cc1)NO` [7r, N^1-(4-((3R,6'S,7'R,7a'S)-6'-benzoyl-6-chloro-2-oxo-1',6',7',7a'-tetrahydro-3'H-spiro[indoline-3,5'-pyrrolo[1,2-c]thiazol]-7'-yl)phenyl)-N^6-hydroxyadipamide], the melting point was in the range of 160.6 to 161.9 °C. In addition, at GST-tagged MDM2, at 1 µM the inhibition was 61%. Also, on HDAC1, the inhibition at 1 µM is 55%.

For the compound `Nc1ccccc1NC(=O)CCCCCCC(=O)Nc1ccc([C@@H]2[C@H]3CSCN3[C@]3(C(=O)Nc4cc(Cl)ccc43)[C@H]2C(=O)c2ccccc2)cc1` [9d, N^1-(2-aminophenyl)-N^8-(4-((3R,6'S,7'R,7a'S)-6'-benzoyl-6-chloro-2-oxo-1',6',7',7a'-tetrahydro-3'H-spiro[indoline-3,5'-pyrrolo[1,2-c]thiazol]-7'-yl)phenyl)octanediamide], the melting point is 145.2 to 146.4 °C. The compound also had an inhibition at 1 µM on GST-tagged MDM2 of 56%. Further, at HDAC1, the inhibition at 1 µM worked out at 55%.

As to `O=C(CCCCCCC(=O)Nc1ccc([C@@H]2[C@H]3CSCN3[C@]3(C(=O)Nc4ccc(F)cc43)[C@H]2C(=O)c2ccccc2)cc1)NO` [7c, N^1-(4-((3R,6'S,7'R,7a'S)-6'-benzoyl-5-fluoro-2-oxo-1',6',7',7a'-tetrahydro-3'H-spiro[indoline-3,5'-pyrrolo[1,2-c]thiazol]-7'-yl)phenyl)-N^8-hydroxyoctanediamide], the melting point lay in the range of 144.3 to 145.7 °C. This compound also showed an inhibition at 1 µM against GST-tagged MDM2 of 51%. Also, on HDAC1, the inhibition at 1 µM came to 68%.

Turning to `O=C(CCCCCCC(=O)Nc1ccc([C@@H]2[C@H]3CSCN3[C@]3(C(=O)Nc4ccccc43)[C@H]2C(=O)c2ccccc2)cc1)NO` [7a, N^1-(4-((3R,6'S,7'R,7a'S)-6'-benzoyl-2-oxo-1',6',7',7a'-tetrahydro-3'H-spiro[indoline-3,5'-pyrrolo[1,2-c]thiazol]-7'-yl)phenyl)-N^8-hydroxyoctanediamide], the melting point was 144.7 to 146.1 °C. The compound also gave an inhibition at 1 µM at GST-tagged MDM2 of 39%. Moreover, the inhibition at 1 µM at HDAC1 is 69%.

In turn, `COc1cccc(C(=O)[C@H]2[C@H](c3ccc(NC(=O)CCCCCCC(=O)NO)cc3)[C@H]3CSCN3[C@]23C(=O)Nc2ccccc23)c1` [7l, N^1-hydroxy-N^8-(4-((3R,6'S,7'R,7a'S)-6'-(3-methoxybenzoyl)-2-oxo-1',6',7',7a'-tetrahydro-3'H-spiro[indoline-3,5'-pyrrolo[1,2-c]thiazol]-7'-yl)phenyl)octanediamide] yielded a melting point of 121.6 to 122.8 °C. In addition, the inhibition at 1 µM at GST-tagged MDM2 was 44%. Besides, the inhibition at 1 µM at HDAC1 was 62%.

In the case of `O=C(CCCCCCC(=O)Nc1ccc([C@@H]2[C@H]3CSCN3[C@]3(C(=O)Nc4c(Br)cccc43)[C@H]2C(=O)c2ccccc2)cc1)NO` [7i, N^1-(4-((3R,6'S,7'R,7a'S)-6'-benzoyl-7-bromo-2-oxo-1',6',7',7a'-tetrahydro-3'H-spiro[indoline-3,5'-pyrrolo[1,2-c]thiazol]-7'-yl)phenyl)-N^8-hydroxyoctanediamide], the melting point lay within 137.5 to 138.9 °C. In addition, at 1 µM the inhibition at GST-tagged MDM2 was 30%. The inhibition at 1 µM at HDAC1 was 67%.

As to `O=C(CCCCCCC(=O)Nc1ccc([C@@H]2[C@H]3CSCN3[C@]3(C(=O)Nc4cc(Br)ccc43)[C@H]2C(=O)c2ccccc2)cc1)NO` [7g, N^1-(4-((3R,6'S,7'R,7a'S)-6'-benzoyl-6-bromo-2-oxo-1',6',7',7a'-tetrahydro-3'H-spiro[indoline-3,5'-pyrrolo[1,2-c]thiazol]-7'-yl)phenyl)-N^8-hydroxyoctanediamide], the melting point is 149.8 to 152.1 °C. Further, the inhibition at 1 µM on GST-tagged MDM2 was 59%. Also, the inhibition at 1 µM at HDAC1 was found to be 68%.
